Values of other authors in US20240010628A1, “METHODS OF MANUFACTURE OF R-MDMA” (Mind Medicine, Inc., priority 2022, published 2024).

Columns and labels:
[1] = system: parkinsonian animal model
SERT = SERT (Homo sapiens, UniProt P31645)
DAT = DAT (Homo sapiens, UniProt Q01959)
5-HT2A receptors = 5-HT2A receptors (Homo sapiens, UniProt P28223)
[2] = in vivo

DAT, sequence (Q01959 whole entry, species assumed): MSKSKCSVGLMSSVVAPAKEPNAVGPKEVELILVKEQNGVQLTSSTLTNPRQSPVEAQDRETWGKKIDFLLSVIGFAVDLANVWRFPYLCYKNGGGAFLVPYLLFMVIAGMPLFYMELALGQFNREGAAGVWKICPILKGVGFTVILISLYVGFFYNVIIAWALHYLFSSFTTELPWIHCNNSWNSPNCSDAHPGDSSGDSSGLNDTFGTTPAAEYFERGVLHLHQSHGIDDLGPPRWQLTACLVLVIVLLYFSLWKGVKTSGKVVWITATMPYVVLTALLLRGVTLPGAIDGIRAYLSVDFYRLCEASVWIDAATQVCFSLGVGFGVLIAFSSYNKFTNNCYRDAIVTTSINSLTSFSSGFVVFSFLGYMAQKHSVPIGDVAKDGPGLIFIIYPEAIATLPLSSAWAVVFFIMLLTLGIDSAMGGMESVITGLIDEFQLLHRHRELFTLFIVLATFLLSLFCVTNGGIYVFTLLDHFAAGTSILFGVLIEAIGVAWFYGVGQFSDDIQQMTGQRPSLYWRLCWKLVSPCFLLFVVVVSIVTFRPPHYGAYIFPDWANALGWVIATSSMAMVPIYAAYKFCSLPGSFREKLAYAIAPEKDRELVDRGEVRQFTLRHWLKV
SERT, sequence (P31645 whole entry, species assumed): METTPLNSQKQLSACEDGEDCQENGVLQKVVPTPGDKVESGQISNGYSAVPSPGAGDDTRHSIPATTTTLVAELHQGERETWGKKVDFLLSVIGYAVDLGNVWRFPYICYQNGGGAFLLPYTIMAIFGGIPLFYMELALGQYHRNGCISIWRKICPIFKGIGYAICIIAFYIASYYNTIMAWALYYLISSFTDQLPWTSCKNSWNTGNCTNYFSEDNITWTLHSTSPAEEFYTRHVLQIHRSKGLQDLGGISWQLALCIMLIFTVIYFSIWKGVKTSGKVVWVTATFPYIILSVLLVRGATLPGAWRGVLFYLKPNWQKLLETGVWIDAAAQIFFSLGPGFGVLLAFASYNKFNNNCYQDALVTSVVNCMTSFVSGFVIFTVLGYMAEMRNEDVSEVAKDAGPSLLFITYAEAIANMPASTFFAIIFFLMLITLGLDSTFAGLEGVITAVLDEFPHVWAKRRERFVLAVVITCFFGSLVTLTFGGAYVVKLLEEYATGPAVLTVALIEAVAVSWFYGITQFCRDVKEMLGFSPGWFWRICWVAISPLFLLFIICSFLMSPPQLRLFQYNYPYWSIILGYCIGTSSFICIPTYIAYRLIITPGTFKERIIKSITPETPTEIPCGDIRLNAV
5-HT2A receptors, sequence (P28223 whole entry): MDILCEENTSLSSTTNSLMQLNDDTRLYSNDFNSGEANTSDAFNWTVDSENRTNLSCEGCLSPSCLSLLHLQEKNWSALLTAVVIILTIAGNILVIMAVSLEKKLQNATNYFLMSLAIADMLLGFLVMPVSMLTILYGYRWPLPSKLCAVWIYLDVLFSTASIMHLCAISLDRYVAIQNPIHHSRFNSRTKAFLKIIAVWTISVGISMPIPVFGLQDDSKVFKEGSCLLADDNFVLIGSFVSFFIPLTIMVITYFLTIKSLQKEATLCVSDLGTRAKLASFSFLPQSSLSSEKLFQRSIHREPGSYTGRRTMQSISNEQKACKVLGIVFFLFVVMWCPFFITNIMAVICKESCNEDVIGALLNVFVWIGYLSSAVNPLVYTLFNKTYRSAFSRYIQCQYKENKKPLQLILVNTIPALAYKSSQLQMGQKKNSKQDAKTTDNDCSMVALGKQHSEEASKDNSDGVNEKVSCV

Structure (SMILES): CN[C@@H](C)Cc1ccc2c(c1)OCO2 [S-MDMA, (S)-1-(benzo[d][1,3]dioxol-5-yl)-N-methylpropan-2-amine]
- severity of peak-dose dyskinesia / dyskinesia [1]: exacerbated
- total duration of ON-time [1]: extended
- affinity for SERT (SERT): high affinity
- affinity for DAT (DAT): moderate affinity

Structure (SMILES): CN[C@H](C)Cc1ccc2c(c1)OCO2 [R-MDMA, (R)-1-(benzo[d][1,3]dioxol-5-yl)-N-methylpropan-2-amine]
- duration of good ON-time [1]: increased
- severity of peak-dose dyskinesia / dyskinesia [1]: decreased
- selectivity for 5-HT2A receptors (5-HT2A receptors): selective compound for 5-HT2A receptors
- efficacy as a releaser of dopamine (dopamine): low efficacy
- hyperthermia [2]: does not produce hyperthermia

Structure (SMILES): CNC(C)Cc1ccc2c(c1)OCO2 (racemic) [racemic MDMA, 3,4-Methylenedioxymethamphetamine, reference compound]
- severity of peak-dose dyskinesia / dyskinesia [1]: reducing dyskinesia
- total duration of ON-time [1]: extending ON-time
